Reference: patent EP0490380B1, “Use of N,N'-bis 3-(ethylamino)propyl -1,7-heptanediamine and a cytotoxic agent” (MERRELL PHARMACEUTICALS INC., priority 1990, dated 1992)
Like-named read-outs stand apart in the source and are kept apart here. Marks after values point to notes of the source that are not given here.

Experiments:
[1] = tested on: MCA38 (mouse colon adenocarcinoma); experiment: Cell viability by colorimetric MTT assay after 96 hour incubation, MCA38 cells; type: cell-based; settings: for IC50: Mus musculus, 96 h
Protocol: (§1) In addition, the Fractional Inhibitory Concentration (FIC) for the various treatments was calculated. FIC's are an accepted measurement of synergy [Middleton and Westmacott, J.Antimicrobial Chemother. […] For two interacting drugs, the sum of the FIC's of each of the treatments expresses the extent of the synergistic interaction.
(§2) Where FIC is less than 1, there is synergy between the two treatments, where FIC is 1, there is no synergy (additive effect). The smaller the value for FIC, the greater the synergistic interaction.

HeLa cells = experiment: Cell viability by colorimetric MTT assay after 96 hour incubation, HeLa cells; type: cell-based; settings: for IC50: Homo sapiens, HeLa
Protocol: as §1, §2

L1210 Leukemia = experiment: Conjunctive therapy of L1210 leukemia in vivo (survival); settings: BDF1 male mice, 10^5 L1210 cells i.p. day 0, control 7.6±0.5
Protocol: Groups of 5 mice (BDF1 male) were inoculated i.p. with 10^5 L1210 leukemia cells on day 0. Vinblastine was administered at 0.5 mg/kg, i.p., on day 3. The compound N,N'-bis(3-(ethylamino) propyl]-1,7-heptanediamine was administered at 5 mg/kg, every 3 hours, 4 times per day, on days 4 and 5. Control group received no treatment after inoculation. Relative survival time was determined and expressed as % T/C (mean survival time treated/mean survival time control x 100). The results of these studies are presented in Table 1. Table 1

## COc1cccc2c1C(=O)c1c(O)c3c(c(O)c1C2=O)C[C@@](O)(C(=O)CO)C[C@@H]3O[C@H]1C[C@H](N)[C@H](O)[C@H](C)O1 [Adriamycin, adriamycin]
[1]; MCA 38 cells, 28,314 at 0 µg/mL (adriamycin alone), read-out: IC50 Adriamycin
  IC50: 0.0079 µg/mL
[1]; MCA 38 cells, 28,314 at 0.39 µg/mL, read-out: IC50 Adriamycin
  IC50: 0.0075 µg/mL
[1]; MCA 38 cells, 28,314 at 0.78 µg/mL, read-out: IC50 Adriamycin
  IC50: 0.0073 µg/mL
[1]; MCA 38 cells, 28,314 at 1.563 µg/mL, read-out: IC50 Adriamycin
  IC50: 0.007 µg/mL
[1]; MCA 38 cells, 28,314 at 3.125 µg/mL, read-out: IC50 Adriamycin
  IC50: 0.0063 µg/mL
[1]; MCA 38 cells, 28,314 at 6.25 µg/mL, read-out: IC50 Adriamycin
  IC50: 0.0025 µg/mL
[1]; MCA 38 cells, 28,314 at 12.5 µg/mL, read-out: IC50 Adriamycin
  IC50: 0.0018 µg/mL
HeLa cells; 96 h, 28,314 at 0 µg/mL (adriamycin alone), read-out: IC50 Adriamycin
  IC50: 8.6 ng/mL
HeLa cells; 96 h, 28,314 at 0.2 µg/mL, read-out: IC50 Adriamycin
  IC50: 6.7 ng/mL
HeLa cells; 96 h, 28,314 at 0.39 µg/mL, read-out: IC50 Adriamycin
  IC50: 5.8 ng/mL
HeLa cells; 96 h, 28,314 at 0.78 µg/mL, read-out: IC50 Adriamycin
  IC50: 4.8 ng/mL
HeLa cells; 96 h, 28,314 at 1.5625 µg/mL, read-out: IC50 Adriamycin
  IC50: 1.5 ng/mL

## CC[C@]1(O)C[C@@H]2CN(CCc3c([nH]c4ccccc34)[C@@](C(=O)OC)(c3cc4c(cc3OC)N(C)[C@H]3[C@@](O)(C(=O)OC)[C@H](OC(C)=O)[C@]5(CC)C=CCN6CC[C@]43[C@@H]65)C2)C1 [Vinblastine, vinblastine]
L1210 Leukemia; Vinblastine 0.5 mg/kg i.p. day 3
  Mean Survival Time: 10.0 ± 0.7 days
[1]; MCA 38 cells, 28,314 at 0 µg/mL (vinblastine alone), read-out: IC50 Vinblastin
  IC50: 0.0595 µg/mL
[1]; MCA 38 cells, 28,314 at 0.1563 µg/mL, read-out: IC50 Vinblastin
  IC50: 0.0548 µg/mL
[1]; MCA 38 cells, 28,314 at 0.3125 µg/mL, read-out: IC50 Vinblastin
  IC50: 0.043 µg/mL
[1]; MCA 38 cells, 28,314 at 0.625 µg/mL, read-out: IC50 Vinblastin
  IC50: 0.033 µg/mL
[1]; MCA 38 cells, 28,314 at 1.25 µg/mL, read-out: IC50 Vinblastin
  IC50: 0.025 µg/mL
[1]; MCA 38 cells, 28,314 at 2.5 µg/mL, read-out: IC50 Vinblastin
  IC50: 0.015 µg/mL
[1]; MCA 38 cells, 28,314 at 5.0 µg/mL, read-out: IC50 Vinblastin
  IC50: 0.003 µg/mL
HeLa cells; 96 h, 28,314 at 0 µg/mL (vinblastine alone), read-out: IC50 Vinblastin
  IC50: 1.6 ng/mL
HeLa cells; 96 h, 28,314 at 0.1563 µg/mL, read-out: IC50 Vinblastin
  IC50: 1.33 ng/mL
HeLa cells; 96 h, 28,314 at 0.3125 µg/mL, read-out: IC50 Vinblastin
  IC50: 1.33 ng/mL
HeLa cells; 96 h, 28,314 at 0.625 µg/mL, read-out: IC50 Vinblastin
  IC50: 1.19 ng/mL
HeLa cells; 96 h, 28,314 at 1.25 µg/mL, read-out: IC50 Vinblastin
  IC50: 1.17 ng/mL
HeLa cells; 96 h, 28,314 at 2.5 µg/mL, read-out: IC50 Vinblastin
  IC50: 0.63 ng/mL
HeLa cells; 96 h, 28,314 at 5 µg/mL, read-out: IC50 Vinblastin
  IC50: 0.24 ng/mL
HeLa cells; 96 h, 28,314 at 10 µg/mL, read-out: IC50 Vinblastin
  IC50: 0.11 ng/mL
HeLa cells; 96 h, 28,314 at 20 µg/mL, read-out: IC50 Vinblastin
  IC50: 0.09 ng/mL

## N.N.[Cl][Pt][Cl] [Cisplatin]
[1]; MCA 38 cells, 28,314 at 0 µg/mL (cisplatin alone)
  IC50 Cisplatin: 0.847 µg/mL
[1]; MCA 38 cells, 28,314 at 0.2 µg/mL
  IC50 Cisplatin: 0.58 µg/mL
[1]; MCA 38 cells, 28,314 at 0.39 µg/mL
  IC50 Cisplatin: 0.387 µg/mL
[1]; MCA 38 cells, 28,314 at 0.78 µg/mL
  IC50 Cisplatin: 0.376 µg/mL
[1]; MCA 38 cells, 28,314 at 1.56 µg/mL
  IC50 Cisplatin: 0.276 µg/mL
[1]; MCA 38 cells, 28,314 at 3.125 µg/mL
  IC50 Cisplatin: 0.177* µg/mL
[1]; MCA 38 cells, 28,314 at 6.25 µg/mL
  IC50 Cisplatin: 0.165 µg/mL
[1]; MCA 38 cells, 28,314 at 12.5 µg/mL
  IC50 Cisplatin: 0.053 µg/mL
HeLa cells; 28,314 at 0 µg/mL (cisplatin alone)
  IC50 Cisplatin: 0.359 µg/mL
HeLa cells; 28,314 at 0.39 µg/mL
  IC50 Cisplatin: 0.336 µg/mL
HeLa cells; 28,314 at 0.78 µg/mL
  IC50 Cisplatin: 0.276 µg/mL
HeLa cells; 28,314 at 1.563 µg/mL
  IC50 Cisplatin: 0.186 µg/mL
HeLa cells; 28,314 at 3.125 µg/mL
  IC50 Cisplatin: 0.130 µg/mL
HeLa cells; 28,314 at 6.25 µg/mL
  IC50 Cisplatin: 0.088 µg/mL
HeLa cells; 28,314 at 12.5 µg/mL
  IC50 Cisplatin: 0.074* µg/mL
HeLa cells; 28,314 at 25 µg/mL
  IC50 Cisplatin: 0.068 µg/mL
HeLa cells; 28,314 at 50 µg/mL
  IC50 Cisplatin: 0.068 µg/mL
HeLa cells; 28,314 at 100 µg/mL
  IC50 Cisplatin: 0.057 µg/mL

## CCNCCCNCCCCCCCNCCCNCC [Compound 28,314, N,N'-Bis[3-(ethylamino)propyl]-1,7-heptanediamine]
L1210 Leukemia; 28,314 5 mg/kg every 3 hours, 4 times per day (20 mg/Kg/day), days 4,5
  Mean Survival Time: 12.6 ± 0.9 days
[1]; MCA 38 cells, Table 2 (cisplatin series), read-out: IC50 28,314 alone
  IC50: 17.7 µg/mL
[1]; MCA 38 cells, Table 3 (adriamycin series), read-out: IC50 28,314 alone
  IC50: 25 µg/mL
[1]; MCA 38 cells, Table 4 (AraC series), read-out: IC50 28,314 alone
  IC50: 3.54 µg/mL
[1]; MCA 38 cells, Table 5 (vinblastine series), read-out: IC50 28,314 alone
  IC50: 10 µg/mL
HeLa cells; 96 h, Table 6 (cisplatin series), read-out: IC50 28,314 alone
  IC50: ~200000 ng/mL
HeLa cells; 96 h, Table 7 (adriamycin series), read-out: IC50 28,314 alone
  IC50: 1590 ng/mL
HeLa cells; 96 h, Table 8 (AraC series), read-out: IC50 28,314 alone
  IC50: ~160000 ng/mL

## Nc1ccn([C@@H]2O[C@H](CO)[C@@H](O)[C@@H]2O)c(=O)n1 [AraC, cytarabine]
[1]; MCA 38 cells, 28,314 at 0 µg/mL (AraC alone), read-out: IC50 AraC
  IC50: 0.66 µg/mL
[1]; MCA 38 cells, 28,314 at 0.1563 µg/mL, read-out: IC50 AraC
  IC50: 0.596 µg/mL
[1]; MCA 38 cells, 28,314 at 0.3125 µg/mL, read-out: IC50 AraC
  IC50: 0.488 µg/mL
[1]; MCA 38 cells, 28,314 at 0.625 µg/mL, read-out: IC50 AraC
  IC50: 0.36 µg/mL
[1]; MCA 38 cells, 28,314 at 1.25 µg/mL, read-out: IC50 AraC
  IC50: 0.23 µg/mL
[1]; MCA 38 cells, 28,314 at 2.5 µg/mL, read-out: IC50 AraC
  IC50: 0.071 µg/mL
HeLa cells; 96 h, 28,314 at 0 µg/mL (AraC alone), read-out: IC50 AraC
  IC50: 1020 ng/mL
HeLa cells; 96 h, 28,314 at 0.1563 µg/mL, read-out: IC50 AraC
  IC50: 630 ng/mL
HeLa cells; 96 h, 28,314 at 0.3125 µg/mL, read-out: IC50 AraC
  IC50: 600 ng/mL
HeLa cells; 96 h, 28,314 at 0.625 µg/mL, read-out: IC50 AraC
  IC50: 530 ng/mL
HeLa cells; 96 h, 28,314 at 1.25 µg/mL, read-out: IC50 AraC
  IC50: 370 ng/mL
HeLa cells; 96 h, 28,314 at 2.5 µg/mL, read-out: IC50 AraC
  IC50: 350 ng/mL
HeLa cells; 96 h, 28,314 at 5 µg/mL, read-out: IC50 AraC
  IC50: 220 ng/mL
HeLa cells; 96 h, 28,314 at 10 µg/mL, read-out: IC50 AraC
  IC50: 150 ng/mL
HeLa cells; 96 h, 28,314 at 20 µg/mL, read-out: IC50 AraC
  IC50: 140 ng/mL
HeLa cells; 96 h, 28,314 at 40 µg/mL, read-out: IC50 AraC
  IC50: 140 ng/mL
HeLa cells; 96 h, 28,314 at 80 µg/mL, read-out: IC50 AraC
  IC50: 140 ng/mL
